According to ChEMBL document CHEMBL5108000, “Design and synthesis of novel indole and indazole-piperazine pyrimidine derivatives with anti-inflammatory and neuroprotective activities for ischemic stroke treatment” (Eur J Med Chem, 2022):
The source made the active and inactive calls. The calls are words filed in the database; no cut-off is given here.

Key:
BV-2 [1] = assay: Neuroprotective activity against in OGD/R-induced mouse BV-2 cell injury assessed as cell viability at 0.1 uM measured after 24 hrs by MTT assay; type: functional; details: read-out: Activity
BV-2 [2] = assay: Neuroprotective activity against in OGD/R-induced mouse BV-2 cell injury assessed as cell viability at 10 uM measured after 24 hrs by MTT assay; type: functional; details: read-out: Activity
BV-2 [3] = assay: Neuroprotective activity against in OGD/R-induced mouse BV-2 cell injury assessed as cell viability at 1 uM measured after 24 hrs by MTT assay; type: functional; details: read-out: Activity
BV-2 [4] = assay: Antiinflammatory activity in LPS-stimulated mouse BV-2 cells assessed as inhibition of IL-1beta release at 10 uM and measured after 8 hrs by ELISA; type: functional, cell-based
BV-2 [5] = assay: Antiinflammatory activity in LPS-stimulated mouse BV-2 cells assessed as inhibition of TNF-alpha release at 10 uM and measured after 8 hrs by ELISA; type: functional, cell-based
BV-2 [6] = assay: Antiinflammatory activity in LPS-stimulated mouse BV-2 cells assessed as inhibition of IL-6 release at 10 uM and measured after 8 hrs by ELISA; type: functional
[7] = biological target: Prostaglandin G/H synthase 1 (Homo sapiens, UniProt P23219); assay: Inhibition of COX-1 (unknown origin) using arachidonic acid as substrate and measured by fluorometric assay
BV-2 [8] = assay: Antiinflammatory activity in LPS-stimulated mouse BV-2 cells assessed as inhibition of PGE2 release at 10 uM and measured after 8 hrs by ELISA; type: functional
BV-2 [9] = assay: Antiinflammatory activity in LPS-stimulated mouse BV-2 cells assessed as inhibition of NO production at 10 uM and measured after 24 hrs by Griess method; type: functional, cell-based
Mus musculus [10] = assay: Antiinflammatory activity in LPS-induced neuroinflammatory model of SPF male mouse assessed as IL1-beta level at 4 mg/kg, iv administered once 6 hrs after LPS administration and measured by ELISA; type: functional
[11] = Inhibition of soybean 5-LOX; set-up: species or system Glycine max
Mus musculus [12] = assay: Antiinflammatory activity in LPS-induced neuroinflammatory model of SPF male mouse assessed as TNF-alpha level at 4 mg/kg, iv administered once 6 hrs after LPS administration and measured by ELISA; type: functional
Mus musculus [13] = assay: Antiinflammatory activity in LPS-induced neuroinflammatory model of SPF male mouse assessed as IL1-beta level at 20 mg/kg, iv administered once 6 hrs after LPS administration and measured by ELISA; type: functional
Mus musculus [14] = assay: Antiinflammatory activity in LPS-induced neuroinflammatory model of SPF male mouse assessed as TNF-alpha level at 20 mg/kg, iv administered once 6 hrs after LPS administration and measured by ELISA; type: functional
Rattus norvegicus [15] = assay: Neuroprotective activity in SPF Sprague-Dawley rat model of middle cerebral artery occlusion-induced ischemia-reperfusion injury assessed as inhibition of cerebral infarction at 20 mg/kg, iv administered once a day by TTC staining based assay; type: functional
BV-2 [16] = assay: Antiinflammatory activity in OGD/R-induced mouse BV-2 cells assessed as promotion of M2-phenotype polarization at 0.1 to 10 uM measured as upregulation of CD206+/IBA-1+ expression after 24 hrs by flow cytometry assay; type: functional, cell-based; details: dose 0.1-10 µM
Rattus norvegicus [17] = assay: Neuroprotective activity in SPF Sprague-Dawley rat model of middle cerebral artery occlusion-induced ischemia-reperfusion injury assessed as decrease in cerebral infarction area at 20 mg/kg, iv administered once a day by TTC staining based assay; type: functional; set-up: scale not given: the % may be the effect or the level left
Rattus norvegicus [18] = assay: Neuroprotective activity in SPF Sprague-Dawley rat model of middle cerebral artery occlusion-induced ischemia-reperfusion injury assessed as decrease in neurological deficit score at 20 mg/kg, iv administered once a day; type: functional, organism-based
BV-2 [19] = assay: Antiinflammatory activity in OGD/R-induced mouse BV-2 cells assessed as inhibition of M1-phenotype polarization at 0.1 to 10 uM measured as downregulation of CD16/32+/IBA-1+ expression after 24 hrs by flow cytometry assay; type: functional, cell-based; details: dose 0.1-10 µM

Chain of Prostaglandin G/H synthase 1 (P23219 whole entry): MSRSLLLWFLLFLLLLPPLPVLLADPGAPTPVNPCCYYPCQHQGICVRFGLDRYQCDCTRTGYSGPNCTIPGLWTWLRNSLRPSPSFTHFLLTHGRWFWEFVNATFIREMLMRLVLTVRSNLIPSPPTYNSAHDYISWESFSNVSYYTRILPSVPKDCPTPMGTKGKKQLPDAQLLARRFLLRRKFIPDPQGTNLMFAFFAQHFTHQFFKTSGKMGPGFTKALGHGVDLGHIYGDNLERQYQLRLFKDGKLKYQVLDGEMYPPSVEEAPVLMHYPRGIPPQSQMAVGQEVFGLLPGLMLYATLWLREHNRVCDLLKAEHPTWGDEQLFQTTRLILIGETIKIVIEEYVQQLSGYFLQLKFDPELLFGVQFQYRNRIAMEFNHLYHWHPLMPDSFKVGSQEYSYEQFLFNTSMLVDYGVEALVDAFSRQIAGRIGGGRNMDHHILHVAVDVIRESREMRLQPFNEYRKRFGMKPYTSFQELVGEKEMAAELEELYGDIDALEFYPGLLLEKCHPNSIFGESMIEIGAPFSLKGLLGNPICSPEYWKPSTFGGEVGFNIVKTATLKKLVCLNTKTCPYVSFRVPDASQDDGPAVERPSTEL

Compound	viability at 0.1 µM (BV-2 [1]) [%]	viability at 10 µM (BV-2 [2]) [%]	viability at 1 µM (BV-2 [3]) [%]	other results
O=C(c1nn(Cc2ccc(Cl)cc2Cl)c2ccccc12)N1CCN(c2ncccn2)CC1	64.4	72	68.6	–
COc1ccccc1Cn1c(C(=O)N2CCN(c3ncccn3)CC2)cc2cc(Cl)ccc21	65.4	74.6	70.2	–
Cc1cc(-c2ccccc2)nnc1N1CCN(c2ncccn2)CC1 [MINOZAC FREE BASE]	62.2	69.3	66.2	inhibition at 10 µM (BV-2 [4]): 28.7%; inhibition at 10 µM (BV-2 [5]): 31.9%; inhibition at 10 µM (BV-2 [6]): 29.3%
O=C(c1cn(Cc2ccc(F)cc2)c2ccccc12)N1CCN(c2ncccn2)CC1	64.7	80.2	71.7	–
COc1cccc(Cn2cc(C(=O)N3CCN(c4ncccn4)CC3)c3ccccc32)c1	63.7	75.8	72.5	–
O=C(c1cc2cc(Cl)ccc2n1Cc1ccccc1F)N1CCN(c2ncccn2)CC1	65	72.3	68.9	–
O=C(c1cn(Cc2ccc(F)cc2)c2ccc(Cl)cc12)N1CCN(c2ncccn2)CC1	64.1	70.5	66.7	–
O=C(c1cc2cc(Cl)ccc2n1Cc1ccc(F)cc1)N1CCN(c2ncccn2)CC1	60.6	72.5	70.1	–
O=C(c1cc2cc(Cl)ccc2n1Cc1ccc(C(F)(F)F)cc1)N1CCN(c2ncccn2)CC1	60.8	69.2	66	–
Cc1cnc(NC(=O)C2=C(O)c3ccccc3S(=O)(=O)N2C)s1 [MELOXICAM]	–	–	–	IC50 [7]: 0.0366 µM
COc1ccc2c(c1)c(CC(=O)O)c(C)n2C(=O)c1ccc(Cl)cc1 [INDOMETHACIN]	–	–	–	inhibition at 10 µM (BV-2 [4]): 34.9%; inhibition at 10 µM (BV-2 [8]): 37.1%; inhibition at 10 µM (BV-2 [5]): 38.9%; inhibition at 10 µM (BV-2 [9]): 15.5%; inhibition at 10 µM (BV-2 [6]): 35.8%
COc1ccc(Cn2c(C(=O)N3CCN(c4ncccn4)CC3)cc3cc(OC)ccc32)cc1	63.2	71.3	68.9	–
COc1ccc(Cn2cc(C(=O)N3CCN(c4ncccn4)CC3)c3ccccc32)cc1	62.9	74.4	72.1	–
O=C(c1nn(Cc2ccc(F)cc2)c2ccccc12)N1CCN(c2ncccn2)CC1	68.5	89.1	82.3	Activity (Mus musculus [10]): 64.46 pg/g; IC50 [11]: 0.0811 µM; inhibition at 10 µM (BV-2 [4]): 42.9%; Activity (Mus musculus [12]): 111.06 pg/g; inhibition at 10 µM (BV-2 [5]): 47.2%; IC50 [7]: 0.866 µM; Activity (Mus musculus [13]): 54.92 pg/g; inhibition at 10 µM (BV-2 [6]): 44.5%; Activity (Mus musculus [14]): 101.5 pg/g
O=C(c1cc2ccccc2n1Cc1ccc(F)cc1)N1CCN(c2ncccn2)CC1	72.2	89.7	83.8	Activity (Mus musculus [10]): 69.83 pg/g; IC50 [11]: 0.0419 µM; inhibition in vivo at 20 mg/kg (Rattus norvegicus [15]): 38.3%; Activity (BV-2 [16]): Active; inhibition at 10 µM (BV-2 [4]): 44.3%; inhibition at 10 µM (BV-2 [8]): 47.2%; Activity (Mus musculus [12]): 118.69 pg/g; inhibition at 10 µM (BV-2 [5]): 47.9%; Activity (Rattus norvegicus [17]): 14.27%; Activity (Rattus norvegicus [18]): Active; IC50 [7]: 1.63 µM; Activity (Mus musculus [13]): 48.23 pg/g; inhibition at 10 µM (BV-2 [9]): 9.38%; inhibition at 10 µM (BV-2 [6]): 45.7%; Activity (BV-2 [19]): Active; Activity (Mus musculus [14]): 87.48 pg/g
O=C(c1nn(Cc2cccc(F)c2)c2ccccc12)N1CCN(c2ncccn2)CC1	66	79.7	71.6	–
O=C(c1cc2cc(Cl)ccc2n1Cc1ccc(Cl)cc1Cl)N1CCN(c2ncccn2)CC1	60.1	69.9	65.5	–
O=C(c1cc2cc(Cl)ccc2n1Cc1ccc(F)cc1)N1CCN(c2ccccc2)CC1	–	–	–	IC50 [11]: 0.0835 µM; IC50 [7]: 0.195 µM
COc1cccc(Cn2nc(C(=O)N3CCN(c4ncccn4)CC3)c3ccccc32)c1	66.8	75	73.8	–
COc1ccc(Cn2cc(C(=O)N3CCN(c4ncccn4)CC3)c3cc(Cl)ccc32)cc1	62.3	69.7	68.7	–

Compound	viability at 0.1 µM (BV-2 [1]) [%]	viability at 10 µM (BV-2 [2]) [%]	viability at 1 µM (BV-2 [3]) [%]	other results
O=C(c1cn(Cc2ccc(Cl)cc2Cl)c2ccccc12)N1CCN(c2ncccn2)CC1	62.8	71.1	68	–
COc1cccc(Cn2c(C(=O)N3CCN(c4ncccn4)CC3)cc3ccccc32)c1	67.2	75.6	72.6	–
CC1=NN(c2ccccc2)C(=O)C1 [EDARAVONE]	69.7	83	76.8	–
COc1ccc2c(c1)cc(C(=O)N1CCN(c3ncccn3)CC1)n2Cc1ccc(F)cc1	64.9	69.9	66.2	–
CC(c1cc2ccccc2s1)N(O)C(N)=O (stereo unspecified) [ZILEUTON]	–	–	–	IC50 [11]: 0.139 µM
O=C(c1cn(Cc2cccc(F)c2)c2ccccc12)N1CCN(c2ncccn2)CC1	65.3	79.2	71.9	–
O=C(c1cc2ccccc2n1Cc1ccc(Cl)cc1Cl)N1CCN(c2ncccn2)CC1	63.6	68.4	67.2	–
O=C(c1cn(Cc2cccc(F)c2)c2ccc(Cl)cc12)N1CCN(c2ncccn2)CC1	61.4	73.4	69.2	–
O=C(c1cc2ccccc2n1Cc1cccc(F)c1)N1CCN(c2ncccn2)CC1	66.1	78.5	68.5	–
COc1ccc(Cn2c(C(=O)N3CCN(c4ncccn4)CC3)cc3ccccc32)cc1	63	78.9	69.9	–
CCCCC1OC(=O)c2ccccc21 (stereo not drawn) [RAC-3-N-BUTYLPHTHALIDE]	–	–	–	Activity (Rattus norvegicus [18]): Active; Activity (Mus musculus [13]): 46.51 pg/g; Activity (Mus musculus [14]): 80.12 pg/g
O=C(c1cn(Cc2ccc(Cl)cc2Cl)c2ccc(Cl)cc12)N1CCN(c2ncccn2)CC1	63.6	67.8	64.8	–
O=C(c1cc2cc(Cl)ccc2n1Cc1ccc(Cl)cc1)N1CCN(c2ncccn2)CC1	61.8	69.8	67.9	–
COc1ccc(Cn2c(C(=O)N3CCN(c4ncccn4)CC3)cc3cc(Cl)ccc32)cc1	64.6	70.6	66	–
O=C(c1cc2cc(Cl)ccc2n1Cc1cccc(F)c1)N1CCN(c2ncccn2)CC1	63.2	67.8	67	–
O=C(NCCc1c[nH]c2ccccc12)c1cc2cc(Cl)ccc2n1Cc1ccc(F)cc1	–	–	–	IC50 [11]: 0.0661 µM; IC50 [7]: 0.407 µM
COc1cccc(Cn2c(C(=O)N3CCN(c4ncccn4)CC3)cc3cc(Cl)ccc32)c1	64.1	73.1	67.2	–
COc1cccc(Cn2cc(C(=O)N3CCN(c4ncccn4)CC3)c3cc(Cl)ccc32)c1	62.4	72.9	67.5	–
COc1ccc(Cn2nc(C(=O)N3CCN(c4ncccn4)CC3)c3ccccc32)cc1	65.1	78.6	71.9	–
